Measurements published in patent publication US9179694B2, “Method and composition for enhancing milk production and milk component concentrations” (PURINA ANIMAL NUTRITION LLC, priority 2003, dated 2015).
Marks after values point to notes of the source that are not given here.

Assay: Fat content of produced milk in sorbitol feeding trials
Type: in vivo, Holstein cows
Settings: for Fat in Produced Milk: Pre-Partum Trial #1 (75/0/0 g/day in wk −3..−1/+1..+4/+5..+8)
Protocol: To determine the weight percent total fat, wet basis, in a sample, the actual weight of fat in the sample is determined in accordance with Method #974.09 (33.7.18) of Official Methods of Analysis, Association of Official Analytical Chemists (AOAC) (16th Ed., 1995). The weight percent total fat, wet basis, is then calculated by dividing the actual weight of fat in the sample by the actual weight of the sample. Each cow of each of the six different trials (Control Trial #1, Control Trial #2, Pre-Partum Trial #1, Pre-Partum Trial #2, Pre/Post Trial #1, and Pre/Post Trial #2) was milked three times daily and the weight of produced milk by each cow was recorded at each milking. The milk from each cow was sampled once per week (⅓ of the sample volume from each of the three milkings occurring on the weekly milk sampling day) and was analyzed for true protein, total fat, lactose, and total solids, as detailed in the property determination and characterization techniques presented above. Additionally, samples of blood were periodically obtained from each cow during the four trials (Control Trial 2, Pre-Partum Trial #2, Pre/Post Trial #1, and Pre/Post Trial #2) encompassed in Example Two and were analyzed for non-esterified fatty acid (NEFA) content as detailed in the property determination and characterization techniques presented above. No NEFA analysis was conducted on the cows employed in Control Trial #1 or Pre-Partum Trial #1 that are the subject of Example One. Example One includes Control Trial #1 and Pre-Partum Trial #1. Both primiparious cows and multiparious cows were included in Control Trial #1 and Pre-Partum Trial #1. Five primiparious cows and fifteen multiparious cows were included in Control Trial #1; likewise, five primiparious cows and fifteen multiparious cows were included in Pre-Partum Trial #1. All cows included in Control Trial #1 and Pre-Partum Trial #1 were Holsteins. Example Two includes Control Trial #2, Pre-Partum Trial #2, Pre/Post Trial #1, and Pre/Post Trial #2. Only multiparious, Holstein cows were included in Control Trial #2, […], Pre/Post Trial #1, and Pre/Post Trial #2. Eighteen multiparious cows were included in both Control Trial #2 and Pre-Partum Trial #2, while sixteen multiparious cows were included in Pre/Post Trial #1 and seventeen multiparious cows were included in Pre/Post Trial #2.

## OC[C@@H](O)[C@@H](O)[C@H](O)[C@@H](O)CO [sorbitol]
Multiparious cows, weeks +1 through +8
  Fat in Produced Milk: 3.50 wt %
Primiparious cows, weeks +1 through +8
  Fat in Produced Milk: 4.2 wt %
Pre-Partum Trial #1 (75 g/day wk −3..−1 only) versus Control Trial #1, primiparious cows, weeks +1 through +8
  increase in fat concentration in the produced milk: 11.7%
Pre-Partum Trial #2 (75/0/100 g/day in wk −3..−1/+1..+4/+5..+8), multiparious cows, week +1
  Fat Content of Produced Milk: 4.91^a weight %
Pre-Partum Trial #2 (75/0/100 g/day in wk −3..−1/+1..+4/+5..+8), multiparious cows, week +2
  Fat Content of Produced Milk: 4.50 weight %
Pre-Partum Trial #2 (75/0/100 g/day in wk −3..−1/+1..+4/+5..+8), multiparious cows, week +3
  Fat Content of Produced Milk: 4.09 weight %
Pre-Partum Trial #2 (75/0/100 g/day in wk −3..−1/+1..+4/+5..+8), multiparious cows, week +4
  Fat Content of Produced Milk: 3.41^a weight %
Pre-Partum Trial #2 (75/0/100 g/day in wk −3..−1/+1..+4/+5..+8), multiparious cows, week +5
  Fat Content of Produced Milk: 3.35 weight %
Pre-Partum Trial #2 (75/0/100 g/day in wk −3..−1/+1..+4/+5..+8), multiparious cows, week +6
  Fat Content of Produced Milk: 3.17^a weight %
Pre-Partum Trial #2 (75/0/100 g/day in wk −3..−1/+1..+4/+5..+8), multiparious cows, week +7
  Fat Content of Produced Milk: 3.29 weight %
Pre-Partum Trial #2 (75/0/100 g/day in wk −3..−1/+1..+4/+5..+8), multiparious cows, week +8
  Fat Content of Produced Milk: 3.34^ab weight %
Pre-Partum Trial #2 (75/0/100 g/day in wk −3..−1/+1..+4/+5..+8), multiparious cows, weeks +1 through +4
  Fat Content of Produced Milk: 4.23^a weight %
Pre-Partum Trial #2 (75/0/100 g/day in wk −3..−1/+1..+4/+5..+8), multiparious cows, weeks +1 through +8
  Fat Content of Produced Milk: 3.75^a weight %
Pre-Partum Trial #2 (75/0/100 g/day in wk −3..−1/+1..+4/+5..+8), multiparious cows, weeks +5 through +8
  Fat Content of Produced Milk: 3.27^ab weight %
Pre/Post Trial #1 (150/125/100 g/day in wk −3..−1/+1..+4/+5..+8), multiparious cows, week +1
  Fat Content of Produced Milk: 5.49^ab weight %
Pre/Post Trial #1 (150/125/100 g/day in wk −3..−1/+1..+4/+5..+8), multiparious cows, week +1, two-trial comparison with Control Trial #2 (Table 23)
  Fat Content of Produced Milk: 5.49 weight %
Pre/Post Trial #1 (150/125/100 g/day in wk −3..−1/+1..+4/+5..+8), multiparious cows, week +2
  Fat Content of Produced Milk: 4.41 weight %
Pre/Post Trial #1 (150/125/100 g/day in wk −3..−1/+1..+4/+5..+8), multiparious cows, week +2, two-trial comparison with Control Trial #2 (Table 23)
  Fat Content of Produced Milk: 4.41 weight %
Pre/Post Trial #1 (150/125/100 g/day in wk −3..−1/+1..+4/+5..+8), multiparious cows, week +3
  Fat Content of Produced Milk: 4.22 weight %
Pre/Post Trial #1 (150/125/100 g/day in wk −3..−1/+1..+4/+5..+8), multiparious cows, week +3, two-trial comparison with Control Trial #2 (Table 23)
  Fat Content of Produced Milk: 4.22 weight %
Pre/Post Trial #1 (150/125/100 g/day in wk −3..−1/+1..+4/+5..+8), multiparious cows, week +4
  Fat Content of Produced Milk: 4.01^b weight %
Pre/Post Trial #1 (150/125/100 g/day in wk −3..−1/+1..+4/+5..+8), multiparious cows, week +4, two-trial comparison with Control Trial #2 (Table 23)
  Fat Content of Produced Milk: 4.01 weight %
Pre/Post Trial #1 (150/125/100 g/day in wk −3..−1/+1..+4/+5..+8), multiparious cows, week +5
  Fat Content of Produced Milk: 3.71 weight %
Pre/Post Trial #1 (150/125/100 g/day in wk −3..−1/+1..+4/+5..+8), multiparious cows, week +5, two-trial comparison with Control Trial #2 (Table 23)
  Fat Content of Produced Milk: 3.71 weight %
Pre/Post Trial #1 (150/125/100 g/day in wk −3..−1/+1..+4/+5..+8), multiparious cows, week +6
  Fat Content of Produced Milk: 3.69^b weight %
Pre/Post Trial #1 (150/125/100 g/day in wk −3..−1/+1..+4/+5..+8), multiparious cows, week +6, two-trial comparison with Control Trial #2 (Table 23)
  Fat Content of Produced Milk: 3.69 weight %
Pre/Post Trial #1 (150/125/100 g/day in wk −3..−1/+1..+4/+5..+8), multiparious cows, week +7
  Fat Content of Produced Milk: 3.45 weight %
Pre/Post Trial #1 (150/125/100 g/day in wk −3..−1/+1..+4/+5..+8), multiparious cows, week +7, two-trial comparison with Control Trial #2 (Table 23)
  Fat Content of Produced Milk: 3.45 weight %
Pre/Post Trial #1 (150/125/100 g/day in wk −3..−1/+1..+4/+5..+8), multiparious cows, week +8
  Fat Content of Produced Milk: 3.68^b weight %
Pre/Post Trial #1 (150/125/100 g/day in wk −3..−1/+1..+4/+5..+8), multiparious cows, week +8, two-trial comparison with Control Trial #2 (Table 23)
  Fat Content of Produced Milk: 3.68 weight %
Pre/Post Trial #1 (150/125/100 g/day in wk −3..−1/+1..+4/+5..+8), multiparious cows, weeks +1 through +4
  Fat Content of Produced Milk: 4.53^ab weight %
Pre/Post Trial #1 (150/125/100 g/day in wk −3..−1/+1..+4/+5..+8), multiparious cows, weeks +1 through +4, two-trial comparison with Control Trial #2 (Table 23)
  Fat Content of Produced Milk: 4.53 weight %
Pre/Post Trial #1 (150/125/100 g/day in wk −3..−1/+1..+4/+5..+8), multiparious cows, weeks +1 through +8
  Fat Content of Produced Milk: 4.09^ab weight %
Pre/Post Trial #1 (150/125/100 g/day in wk −3..−1/+1..+4/+5..+8), multiparious cows, weeks +1 through +8, two-trial comparison with Control Trial #2 (Table 23)
  Fat Content of Produced Milk: 4.09 weight %
Pre/Post Trial #1 (150/125/100 g/day in wk −3..−1/+1..+4/+5..+8), multiparious cows, weeks +5 through +8
  Fat Content of Produced Milk: 3.63^b weight %
Pre/Post Trial #1 (150/125/100 g/day in wk −3..−1/+1..+4/+5..+8), multiparious cows, weeks +5 through +8, two-trial comparison with Control Trial #2 (Table 23)
  Fat Content of Produced Milk: 3.63 weight %
Pre/Post Trial #1 (150/125/100 g/day) versus Control Trial #2, multiparious cows, weeks +1 through +8 (Table 23)
  increase in fat concentration in milk: 7.3%
Pre/Post Trial #1 (150/125/100 g/day) versus Control Trial #2, multiparious cows, weeks +5 through +8 (Table 23)
  increase in fat concentration in milk: 13.8%
Pre/Post Trial #1 (150/125/100 g/day) versus Pre/Post Trial #2 (75/75/100 g/day), multiparious cows, week +8
  greater fat concentration in milk: 17.2%
Pre/Post Trial #2 (75/75/100 g/day in wk −3..−1/+1..+4/+5..+8), multiparious cows, week +1
  Fat Content of Produced Milk: 6.23^b weight %
Pre/Post Trial #2 (75/75/100 g/day in wk −3..−1/+1..+4/+5..+8), multiparious cows, week +2
  Fat Content of Produced Milk: 4.73 weight %
Pre/Post Trial #2 (75/75/100 g/day in wk −3..−1/+1..+4/+5..+8), multiparious cows, week +3
  Fat Content of Produced Milk: 4.21 weight %
Pre/Post Trial #2 (75/75/100 g/day in wk −3..−1/+1..+4/+5..+8), multiparious cows, week +4
  Fat Content of Produced Milk: 3.87^b weight %
Pre/Post Trial #2 (75/75/100 g/day in wk −3..−1/+1..+4/+5..+8), multiparious cows, week +5
  Fat Content of Produced Milk: 3.89 weight %
Pre/Post Trial #2 (75/75/100 g/day in wk −3..−1/+1..+4/+5..+8), multiparious cows, week +6
  Fat Content of Produced Milk: 3.48^ab weight %
Pre/Post Trial #2 (75/75/100 g/day in wk −3..−1/+1..+4/+5..+8), multiparious cows, week +7
  Fat Content of Produced Milk: 3.47 weight %
Pre/Post Trial #2 (75/75/100 g/day in wk −3..−1/+1..+4/+5..+8), multiparious cows, week +8
  Fat Content of Produced Milk: 3.14^a weight %
Pre/Post Trial #2 (75/75/100 g/day in wk −3..−1/+1..+4/+5..+8), multiparious cows, weeks +1 through +4
  Fat Content of Produced Milk: 4.79^b weight %
Pre/Post Trial #2 (75/75/100 g/day in wk −3..−1/+1..+4/+5..+8), multiparious cows, weeks +1 through +8
  Fat Content of Produced Milk: 4.13^b weight %
Pre/Post Trial #2 (75/75/100 g/day in wk −3..−1/+1..+4/+5..+8), multiparious cows, weeks +5 through +8
  Fat Content of Produced Milk: 3.43^ab weight %
Pre/Post Trial #2 (75/75/100 g/day) versus Pre-Partum Trial #2 (75/0/100 g/day), multiparious cows, weeks +1 through +4
  greater fat concentration in milk: 13.24%
Pre/Post Trial #2 (75/75/100 g/day) versus Pre-Partum Trial #2 (75/0/100 g/day), multiparious cows, weeks +1 through +8
  greater fat concentration in milk: 10.1%
Average of means of Pre-Partum Trial #2, Pre/Post Trial #1 and Pre/Post Trial #2 versus Control Trial #2, multiparious cows, weeks +1 through +8
  increase in fat concentration in milk: 4.7%
Average of means of Pre-Partum Trial #2, Pre/Post Trial #1 and Pre/Post Trial #2 versus Control Trial #2, multiparious cows, weeks +5 through +8
  increase in fat concentration in milk: 7.9%
